Read-outs that look alike come from different tables or passages of the source. Square brackets hold non-standard residues; d marks the D form. Peptide text beside a SMILES is read from it.

Here are results for eight compounds from patent US20250026787A1, “PEPTIDES AND METHODS FOR REDUCING SKIN PIGMENTATION” (Glo Pharma, Inc., priority 2021, published 2025).

The test addresses T1, Human recombinant melanocortin MCI receptors (Homo sapiens, UniProt Q01726).
T1 construct: purchased Eurofins Discovery Item 251100; host or cells: CHO-K1
The test can be described thus: MC1 Human Melanocortin GPCR Binding (Agonist Radioligand) competition assay (Eurofins Item 251100). On the procedure: The binding of Group A MCIR peptide antagonists of the disclosure was evaluated in a competition assay (MC1 Human Melanocortin GPCR Binding (Agonist Radioligand) Assay, Item 251100, Eurofins Discovery). […] Human recombinant melanocortin MCI receptors were expressed in CHO-K1 cells in modified HEPES-KOH buffer pH 7.0. […] Non-specific binding was estimated in the presence of 1 μM NDP-α-MSH. Receptors were filtered and washed, and the filters counted to determine [^125I] NDP-α-MSH specifically bound. Peptide antagonists of the disclosure having amino acid sequences as set forth in SEQ ID NOS: 11, 16, 25, 27, 32, 35, and 40 (each having a C-terminal —NH2) were screened at five concentrations, as well as a positive control, SEQ ID NO: 1 (Melanostatine-5). Inhibition curves were obtained by determining the reduction of bound α-MSH in the presence of an amount of, and/or by increasing amounts of, each peptide antagonist. Non-specific binding of peptide was estimated separately in the presence of a vast excess (1 mM) of unlabeled α-MSH, which occupies all the available receptor binding sites. Based on the competitive binding curve, the IC50 values were determined (Eurofins or AAT Bioquest IC50 calculator). […] The binding of Group A MCIR peptide antagonists of the disclosure was evaluated in a competition assay (MC1 Human Melanocortin GPCR Binding (Agonist Radioligand) Assay, Item 251100, Eurofins Discovery). […] Human recombinant melanocortin MCI receptors were expressed in CHO-K1 cells in modified HEPES-KOH buffer pH 7.0. […] Non-specific binding was estimated in the presence of 1 μM NDP-α-MSH. Receptors were filtered and washed, and the filters counted to determine [^125I]NDP-α-MSH specifically bound. Peptide antagonists of the disclosure having amino acid sequences as set forth in SEQ ID NOS: 11, 16, 25, 27, 32, 35, and 40 were screened at five concentrations. Inhibition curves were obtained by determining the reduction of bound α-MSH in the presence of an amount of, and/or by increasing amounts of, each peptide antagonist. […] Based on the percent inhibition relative to the agonist the IC50 values were determined (Eurofins or AAT Bioquest IC50 calculator).

The mark [1] stands for this setting: Example 7, Table 7, binned, screened at five concentrations, read-out: IC50.
Where [2] appears, read: stated as 'in some embodiments', broadest range, read-out: IC50 value using a competition assay.

T1 sequence (Q01726 whole entry): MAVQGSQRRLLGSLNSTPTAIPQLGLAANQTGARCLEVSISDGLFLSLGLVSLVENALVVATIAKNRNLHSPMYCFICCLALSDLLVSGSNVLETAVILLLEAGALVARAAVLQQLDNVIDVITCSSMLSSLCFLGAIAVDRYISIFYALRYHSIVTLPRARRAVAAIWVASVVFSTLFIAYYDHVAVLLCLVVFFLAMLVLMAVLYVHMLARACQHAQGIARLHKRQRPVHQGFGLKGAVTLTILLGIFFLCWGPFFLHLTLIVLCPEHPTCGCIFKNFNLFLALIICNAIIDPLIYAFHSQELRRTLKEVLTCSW

In general, IC50 refers to the midpoint of a concentration-inhibition curve. For `CC[C@H](C)[C@H](N)C(=O)N[C@@H](Cc1ccccc1)C(=O)N[C@@H](CCCNC(=N)N)C(=O)N[C@H](Cc1c[nH]c2ccccc12)C(=O)N[C@@H](Cc1ccccc1)C(=O)N[C@@H](CCCCN)C(=O)N1CCC[C@H]1C(=O)N[C@H](C(N)=O)C(C)C` [SEQ ID NO: 32, Ile-Phe-Arg-dTrp-Phe-Lys-Pro-Val-NH2] (H-IFR[dW]FKPV-NH2), the IC50 runs as follows: under setting [1], less than 200 nM; under setting [2], 70 to 160 nM.
As for `CC(C)[C@H](NC(=O)[C@@H]1CCCN1C(=O)[C@H](CCCCN)NC(=O)[C@H](Cc1ccccc1)NC(=O)[C@@H](Cc1c[nH]c2ccccc12)NC(=O)[C@H](CCCNC(=N)N)NC(=O)[C@@H](Cc1ccccc1)NC(=O)[C@@H](NC(=O)[C@H](C)N)C(C)C)C(N)=O` [SEQ ID NO: 11, Ala-Val-dPhe-Arg-dTrp-Phe-Lys-Pro-Val-NH2] (H-AV[dF]R[dW]FKPV-NH2), the IC50 under setting [1] lay within 200 to 500 nM.
Turning to `CC(C)C[C@@H](NC(=O)[C@H](C)N)C(=O)N[C@H](Cc1ccccc1)C(=O)N[C@@H](CCCNC(=N)N)C(=O)N[C@H](Cc1c[nH]c2ccccc12)C(=O)N[C@@H](Cc1ccccc1)C(=O)N[C@@H](CCCCN)C(=O)N1CCC[C@H]1C(=O)N[C@H](C(N)=O)C(C)C` [SEQ ID NO: 40, Ala-dLeu-dPhe-Arg-dTrp-Phe-Lys-Pro-Val-NH2] (H-A[dL][dF]R[dW]FKPV-NH2), under setting [1], the IC50 was greater than 500 nM.
As to `CC(C)[C@H](NC(=O)[C@@H]1CCCN1C(=O)[C@H](CCCCN)NC(=O)[C@H](Cc1ccccc1)NC(=O)[C@@H](Cc1c[nH]c2ccccc12)NC(=O)[C@H](CCCNC(=N)N)NC(=O)[C@@H](Cc1ccccc1)NC(=O)[C@@H](NC(=O)[C@@H](N)Cc1ccccc1)C(C)C)C(N)=O` [SEQ ID NO: 16, Phe-Val-dPhe-Arg-dTrp-Phe-Lys-Pro-Val-NH2] (H-FV[dF]R[dW]FKPV-NH2), the IC50 reads like this: under setting [1], less than 200 nM; under setting [2], 70 to 160 nM.
As to `CSCC[C@H](N)C(=O)N1CCC[C@H]1C(=O)N[C@H](Cc1ccccc1)C(=O)N[C@@H](CCCNC(=N)N)C(=O)N[C@H](Cc1c[nH]c2ccccc12)C(=O)N[C@@H](Cc1ccccc1)C(=O)N[C@@H](CCCCN)C(=O)N1CCC[C@H]1C(=O)N[C@H](C(N)=O)C(C)C` [SEQ ID NO: 1, Met-Pro-D-Phe-Arg-D-Trp-Phe-Lys-Pro-Val, reference compound] (H-MP[dF]R[dW]FKPV-NH2), the IC50 reads like this: (IC50, Example 7, Table 7, binned, screened at five concentrations) less than 200 nM; (IC50 value, Example 1, competition with 0.04 nM [125I]NDP-α-MSH, 120 minutes at 37° C) 120 nM.
As for `CSCC[C@H](N)C(=O)N[C@H](C(=O)N[C@@H](Cc1ccccc1)C(=O)N[C@@H](CCCNC(=N)N)C(=O)N[C@H](Cc1c[nH]c2ccccc12)C(=O)N[C@@H](Cc1ccccc1)C(=O)N[C@@H](CCCCN)C(=O)N1CCC[C@H]1C(=O)N[C@H](C(N)=O)C(C)C)C(C)C` [SEQ ID NO: 27, Met-Val-Phe-Arg-dTrp-Phe-Lys-Pro-Val-NH2] (H-MVFR[dW]FKPV-NH2), the IC50 under setting [1] is greater than 500 nM.
On to `CSCC[C@H](N)C(=O)N[C@H](C(=O)N[C@H](Cc1ccccc1)C(=O)N[C@H](CCCNC(=N)N)C(=O)N[C@H](Cc1c[nH]c2ccccc12)C(=O)N[C@@H](Cc1ccccc1)C(=O)N[C@@H](CCCCN)C(=O)N1CCC[C@H]1C(=O)N[C@H](C(N)=O)C(C)C)C(C)C` [SEQ ID NO: 35, Met-Val-dPhe-dArg-dTrp-Phe-Lys-Pro-Val-NH2] (H-MV[dF][dR][dW]FKPV-NH2), for which the IC50 under setting [1] was greater than 500 nM.
On to `CC(C)[C@H](NC(=O)[C@@H]1CCCN1C(=O)[C@H](CCCCN)NC(=O)[C@H](Cc1ccccc1)NC(=O)[C@@H](Cc1c[nH]c2ccccc12)NC(=O)[C@H](CCCNC(=N)N)NC(=O)[C@@H](Cc1ccccc1)NC(=O)[C@@H](NC(=O)[C@@H](N)CCC(=O)O)C(C)C)C(N)=O` [SEQ ID NO: 25, Glu-Val-dPhe-Arg-dTrp-Phe-Lys-Pro-Val-NH2] (H-EV[dF]R[dW]FKPV-NH2), for which the IC50 under setting [1] is greater than 500 nM.
